Values quoted from earlier work, collected in patent US20190321435A1, “ACORUS GRAMINEUS AS A PHARMACOLOGICALLY ACTIVE NATURAL TREATMENT IN THE ADDICTION OF NICOTINE” (priority 2018, published 2019).

Assays:
[1] = cited from earlier work
[2] = tested on: intravenous self-administration (IVSA) of nicotine; conditions: rodents; high-dose (Rauhut et al., 2003); cited from earlier work

Structure (SMILES)	adverse effect of intravenous administration ([1]; administered intravenously)	first-pass hepatic metabolism ([1]; oral administration (swallowing))	self-administration of nicotine [2]
CN1CCc2cccc3c2[C@H]1Cc1ccc(O)c(O)c1-3 [apomorphine]	crystallization of the drug and lead to thrombus formation and pulmonary embolism	significant first-pass hepatic metabolism	
CC(NC(C)(C)C)C(=O)c1cccc(Cl)c1 (stereo not drawn) [bupropion]			reduce self-administration of nicotine
